Experimental data from patent US20260364184A1, “COMPOUND BASED ON OXOISOINDOLINYL-SUBSTITUTED TETRAHYDROPYRIMIDINE-DIONE AND USE THEREOF” (GLUETACS THERAPEUTICS (SHANGHAI) CO., LTD., priority 2023, published 2026).

Biological target: T1, IRAK4 (Homo sapiens, UniProt Q9NWZ3)
T1 construct: expression of target proteins in cells; endogenous in cells
T1 sequence (Q9NWZ3 1-460): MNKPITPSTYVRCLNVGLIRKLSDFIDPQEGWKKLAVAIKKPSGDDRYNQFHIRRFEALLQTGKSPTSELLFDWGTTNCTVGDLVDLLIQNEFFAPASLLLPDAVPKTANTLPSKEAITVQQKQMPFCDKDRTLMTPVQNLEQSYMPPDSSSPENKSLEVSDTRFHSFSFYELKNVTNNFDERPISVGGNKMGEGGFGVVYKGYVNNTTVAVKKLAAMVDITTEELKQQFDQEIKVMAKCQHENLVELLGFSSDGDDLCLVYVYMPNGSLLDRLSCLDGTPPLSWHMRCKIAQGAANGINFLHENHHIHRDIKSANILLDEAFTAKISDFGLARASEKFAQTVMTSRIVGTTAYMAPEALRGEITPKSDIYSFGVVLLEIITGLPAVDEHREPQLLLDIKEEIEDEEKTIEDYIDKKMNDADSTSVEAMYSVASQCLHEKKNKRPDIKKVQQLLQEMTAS
Assay: Western blot degradation of IRAK4
Assay type: cell-based
Details: hPBMC Cell; 24 hours
Description: Conventional Western blot assay was performed to evaluate the effects of the compounds of the present disclosure on the expression of target proteins in cells.
(1) Cell Seeding and Protein Harvesting: The selected cells were processed according to the cell seeding procedure and protein harvesting procedure in Table II-2.
(2) To the collected supernatant, 5×SDS sample loading buffer was added, followed by denaturation at 95 °C for 5 minutes. The denatured samples were then separated by SDS-PAGE electrophoresis on a polyacrylamide gel. Proteins were transferred to a nitrocellulose membrane (0.45 μm NC membrane), blocked with blocking buffer at room temperature for 1 hour, and subjected to antibody incubation and development procedures according to the antibody manufacturer's instructions (Cell Signaling Technology).
Half-Maximal Degradation Concentration value (the drug concentration required for degrading proteins by 50%, abbreviated as DC50) reads method: comparing the grayscale values of Western blot bands from drug-treated samples with those from blank DMSO-treated controls, and identifying the drug concentration range at which the grayscale value is half that of the DMSO-treated control bands.
DC50 values can be calculated using ImageJ software to measure grayscale values of Western blot bands from drug-treated samples. The concentration-response curve is fitted to estimate the drug concentration corresponding to half the grayscale value.
Target protein remaining (%) refers to the percentage of target protein remaining in cells after treatment with protein degrader compounds.
Calculation method for target protein remaining (%): Use ImageJ software to measure grayscale values of Western blot bands from drug (protein degrader)-treated samples. The grayscale value of drug-treated bands is divided by that of internal control protein bands, and the resulting quotient is normalized to obtain the relative percentage of remaining target protein after protein degrader treatment.
Target protein degradation rate (%)=1−target protein remaining (%).

Structure (SMILES)	Degradation of substrate protein IRAK4 (substrate protein remaining %)
COc1cc2nn(C3CCN(Cc4ccc5c(c4)CN(N4CCC(=O)NC4=O)C5=O)CC3)cc2cc1NC(=O)c1cccc(C(F)(F)F)c1 [GT-04876, N-(2-(1-((2-(2,4-dioxotetrahydropyrimidin-1(2H)-yl)-1-oxoisoindolin-5-yl)methyl)piperidin-4-yl)-6-methoxy-2H-indazol-5-yl)-3-(trifluoromethyl)benzamide]	A (0%≤substrate protein remaining %≤80%)
COc1cc2nn(C3CCN(CC4CCN(c5ccc6c(c5)C(=O)N(N5CCC(=O)NC5=O)C6=O)CC4)CC3)cc2cc1NC(=O)c1cccc(C(F)(F)F)c1 [GT-04877, N-(2-(1-((1-(2-(2,4-dioxotetrahydropyrimidin-1(2H)-yl)-1,3-dioxoisoindolin-5-yl)piperidin-4-yl)methyl)piperidin-4-yl)-6-methoxy-2H-indazol-5-yl)-3-(trifluoromethyl)benzamide]	A (0%≤substrate protein remaining %≤80%)
COc1ccc2cn(C3CCN(Cc4ccc5c(c4)CN(N4CCC(=O)NC4=O)C5=O)CC3)nc2c1NC(=O)c1cccc(C(F)(F)F)c1 [GT-04884, N-(2-(1-((2-(2,4-dioxotetrahydropyrimidin-1(2H)-yl)-1-oxoisoindolin-5-yl)methyl)piperidin-4-yl)-6-methoxy-2H-indazol-7-yl)-3-(trifluoromethyl)benzamide]	A (0%≤substrate protein remaining %≤80%)
COc1ccc2cn(C3CCN(CC4CCN(c5ccc6c(c5)C(=O)N(N5CCC(=O)NC5=O)C6=O)CC4)CC3)nc2c1NC(=O)c1cccc(C(F)(F)F)c1 [GT-04885, N-(2-(1-((1-(2-(2,4-dioxotetrahydropyrimidin-1(2H)-yl)-1,3-dioxoisoindolin-5-yl)piperidin-4-yl)methyl)piperidin-4-yl)-6-methoxy-2H-indazol-7-yl)-3-(trifluoromethyl)benzamide]	A (0%≤substrate protein remaining %≤80%)
O=C1CCN(N2C(=O)c3ccc(N4CCC(CN5CCN(c6ccc7c(c6)nc(NC(=O)c6cccc(C(F)(F)F)c6)n7[C@H]6CC[C@@H](CO)CC6)CC5)CC4)cc3C2=O)C(=O)N1 [GT-05055, N-(5-(4-((1-(2-(2,4-dioxotetrahydropyrimidin-1(2H)-yl)-1,3-dioxoisoindolin-5-yl)piperidin-4-yl)methyl)piperazin-1-yl)-1-((1s,4s)-4-(hydroxymethyl)cyclohexyl)-1H-benzo[d]imidazol-2-yl)-3-(trifluoromethyl)benzamide]	A (0%≤substrate protein remaining %≤80%)
O=C1CCN(N2C(=O)c3ccc(N4CCC(CN5CCC(n6cc(NC(=O)c7cnn8ccc(N9C[C@H]%10C[C@@H]9CO%10)nc78)c(C(F)F)n6)CC5)CC4)cc3C2=O)C(=O)N1 [GT-05056, 5-((1R,4R)-2-oxa-5-azabicyclo[2.2.1]heptan-5-yl)-N-(3-(difluoromethyl)-1-(1-((1-(2-(2,4-dioxotetrahydropyrimidin-1(2H)-yl)-1,3-dioxoisoindolin-5-yl)piperidin-4-yl)methyl)piperidin-4-yl)-1H-pyrazol-4-yl)pyrazolo[1,5-a]pyrimidine-3-carboxamide]	A (0%≤substrate protein remaining %≤80%)
COc1cc2nn(C3CCN(Cc4ccc5c(c4)C(=O)N(N4CCC(=O)NC4=O)C5=O)CC3)cc2cc1NC(=O)c1cccc(C(F)(F)F)c1 [GT-05078, N-(2-(1-((2-(2,4-dioxotetrahydropyrimidin-1(2H)-yl)-1,3-dioxoisoindolin-5-yl)methyl)piperidin-4-yl)-6-methoxy-2H-indazol-5-yl)-3-(trifluoromethyl)benzamide]	A (0%≤substrate protein remaining %≤80%)
O=C1CCN(N2C(=O)c3ccc(N4CCC(N5CCN(C[C@H]6CC[C@H](n7cc(NC(=O)c8cnn9ccc(N%10C[C@H]%11C[C@@H]%10CO%11)nc89)c(C(F)F)n7)CC6)CC5)CC4)cc3C2=O)C(=O)N1 [GT-05122, 5-((1R,4R)-2-oxa-5-azabicyclo[2.2.1]heptan-5-yl)-N-(3-(difluoromethyl)-1-((1r,4R)-4-((4-(1-(2-(2,4-dioxotetrahydropyrimidin-1(2H)-yl)-1,3-dioxoisoindolin-5-yl)piperidin-4-yl)piperazin-1-yl)methyl)cyclohexyl)-1H-pyrazol-4-yl)pyrazolo[1,5-a]pyrimidine-3-carboxamide]	A (0%≤substrate protein remaining %≤80%)
O=C1CCN(N2C(=O)c3ccc(N4CCC(N5CCN(C[C@H]6CC[C@H](n7cc(NC(=O)c8cnn9ccc(N%10C[C@H]%11C[C@@H]%10CO%11)nc89)c(C(F)F)n7)CC6)CC5)C(F)(F)C4)cc3C2=O)C(=O)N1 (stereo partly drawn) [GT-05123]	A (0%≤substrate protein remaining %≤80%)
O=C1CCN(N2C(=O)c3ccc(N4CCC(N5CCC(CN6CCC(n7cc(NC(=O)c8coc(-c9ccnc(NCC%10CC%10)c9)n8)c(C(F)F)n7)CC6)CC5)CC4)cc3C2=O)C(=O)N1 [GT-05133, 2-(2-((cyclopropylmethyl)amino)pyridin-4-yl)-N-(3-(difluoromethyl)-1-(1-((1′-(2-(2,4-dioxotetrahydropyrimidin-1(2H)-yl)-1,3-dioxoisoindolin-5-yl)-[1,4′-bipiperidin]-4-yl)methyl)piperidin-4-yl)-1H-pyrazol-4-yl) oxazole-4-carboxamide]	A (0%≤substrate protein remaining %≤80%)
O=C1CCN(N2C(=O)c3ccc(N4CCC(N5CCC(CN6CCC(n7cc(NC(=O)c8coc(-c9ccnc(NCC(F)(F)F)c9)n8)c(C(F)F)n7)CC6)CC5)CC4)cc3C2=O)C(=O)N1 [GT-05144, N-(3-(difluoromethyl)-1-(1-((1′-(2-(2,4-dioxotetrahydropyrimidin-1(2H)-yl)-1,3-dioxoisoindolin-5-yl)-[1,4′-bipiperidin]-4-yl)methyl)piperidin-4-yl)-1H-pyrazol-4-yl)-2-(2-((2,2,2-trifluoroethyl)amino)pyridin-4-yl) oxazole-4-carboxamide]	A (0%≤substrate protein remaining %≤80%)
CC(C)(O)c1cc2nn(C3CCN(CC4CCN(c5ccc6c(c5)C(=O)N(N5CCC(=O)NC5=O)C6=O)CC4)CC3)cc2cc1NC(=O)c1cccc(C(F)(F)F)n1 [GT-05220, N-(2-(1-((1-(2-(2,4-dioxotetrahydropyrimidin-1(2H)-yl)-1,3-dioxoisoindolin-5-yl)piperidin-4-yl)methyl)piperidin-4-yl)-6-(2-hydroxypropan-2-yl)-2H-indazol-5-yl)-6-(trifluoromethyl) picolinamide]	A (0%≤substrate protein remaining %≤80%)
CC(C)(O)c1cc2nn(C3CCN(CC4CCN(c5cccc6c5C(=O)N(N5CCC(=O)NC5=O)C6=O)CC4)CC3)cc2cc1NC(=O)c1cccc(C(F)(F)F)n1 [GT-05221, N-(2-(1-((1-(2-(2,4-dioxotetrahydropyrimidin-1(2H)-yl)-1,3-dioxoisoindolin-4-yl)piperidin-4-yl)methyl)piperidin-4-yl)-6-(2-hydroxypropan-2-yl)-2H-indazol-5-yl)-6-(trifluoromethyl) picolinamide]	A (0%≤substrate protein remaining %≤80%)
O=C1CCN(N2C(=O)c3ccc(N4C5CCC4CN(C[C@H]4CC[C@H](n6cc(NC(=O)c7cnn8ccc(N9C[C@H]%10C[C@@H]9CO%10)nc78)c(C(F)F)n6)CC4)C5)cc3C2=O)C(=O)N1 [GT-05240, 5-((1R,4R)-2-oxa-5-azabicyclo[2.2.1]heptan-5-yl)-N-(3-(difluoromethyl)-1-((1r,4R)-4-((8-(2-(2,4-dioxotetrahydropyrimidin-1(2H)-yl)-1,3-dioxoisoindolin-5-yl)-3,8-diazabicyclo[3.2.1]octan-3-yl)methyl)cyclohexyl)-1H-pyrazol-4-yl)pyrazolo[1,5-a]pyrimidine-3-carboxamide]	A (0%≤substrate protein remaining %≤80%)
O=C1CCN(N2C(=O)c3cccc(N4CCN(C[C@H]5CC[C@H](n6cc(NC(=O)c7cnn8ccc(N9C[C@H]%10C[C@@H]9CO%10)nc78)c(C(F)F)n6)CC5)CC4)c3C2=O)C(=O)N1 [GT-05241, 5-((1R,4R)-2-oxa-5-azabicyclo[2.2.1]heptan-5-yl)-N-(3-(difluoromethyl)-1-((1r,4R)-4-((4-(2-(2,4-dioxotetrahydropyrimidin-1(2H)-yl)-1,3-dioxoisoindolin-4-yl)piperazin-1-yl)methyl)cyclohexyl)-1H-pyrazol-4-yl)pyrazolo[1,5-a]pyrimidine-3-carboxamide]	A (0%≤substrate protein remaining %≤80%)
